Like-named read-outs stand apart in the source and are kept apart here. Where no end group is shown, it is not given here.
Columns and labels:
[1] = test system: mice; settings: 50 mgs/kg, ref Okamura et al., 2008; cited from earlier work
[2] = test system: mice; settings: administered into the amygdala in mice; ref Jungling et al., 2008; cited from earlier work
[3] = ref Okamura et al., 2008; cited from earlier work
[4] = test system: NPSR^-/- mice; experiment: Mouse righting reflex recovery test, NPSR^-/- mice; format: in vivo; settings: diazepam 15 mg/kg i.p.
[5] = test system: NPSR^+/+ mice; experiment: Mouse righting reflex recovery test, NPSR^+/+ mice; format: in vivo; settings: diazepam 15 mg/kg i.p.
[6] = test system: Swiss mice; experiment: Mouse righting reflex recovery test, Swiss mice; format: in vivo; settings: diazepam 15 mg/kg i.p., 16 mice per group
[7] = molecular target: T1, native hPAR2 (Homo sapiens, UniProt P55085); experiment: Selectivity: calcium mobilization, native hPAR2 in A549 cells; format: cell-based
T1 sequence (P55085 26-397): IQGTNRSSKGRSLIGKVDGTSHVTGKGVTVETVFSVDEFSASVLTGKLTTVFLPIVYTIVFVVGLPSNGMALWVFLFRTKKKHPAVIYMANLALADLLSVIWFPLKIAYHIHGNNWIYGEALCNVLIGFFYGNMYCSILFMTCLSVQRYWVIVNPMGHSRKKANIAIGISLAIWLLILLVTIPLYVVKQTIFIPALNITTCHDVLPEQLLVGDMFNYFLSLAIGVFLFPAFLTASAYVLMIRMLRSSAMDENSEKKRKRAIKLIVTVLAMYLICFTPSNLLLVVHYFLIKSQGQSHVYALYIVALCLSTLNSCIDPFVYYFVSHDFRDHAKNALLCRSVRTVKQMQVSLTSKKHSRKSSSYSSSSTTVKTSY

O=C(NCc1ccc(F)cc1)N1CCN2C(=O)OC(c3ccccc3)(c3ccccc3)C2C1 (centres unmarked) [SHA 68, 3-oxo-1,1-diphenyl-tetrahydro-oxazolo[3,4-a]pyrazine-7-carboxylic acid 4-fluoro-benzylamide]
effect on NPS-stimulated locomotion [1]: able to partially counteract the stimulatory effects of NPS on locomotion | effect on anxiety and extinction of conditioned fear responses [2]: exerts functionally opposing responses | blood brain barrier penetration [3]: limited blood brain barrier penetration

CN1C(=O)CN=C(c2ccccc2)c2cc(Cl)ccc21 [diazepam]
percent of animals losing the righting reflex ([4]; 10-12 mice per group): 100% | sleeping time (time to regain the RR) ([4]; mean ± sem of 10-12 mice): 211 ± 19 min | percent of animals losing the righting reflex ([5]; 10-12 mice per group): 100% | sleeping time (time to regain the RR) ([5]; mean ± sem of 10-12 mice): 180 ± 18 min | percent of animals losing the righting reflex [6]: 92%

SLIGKV-NH2 [SLIGKV-NH2]
EC50 [7]: 21.9 µM | Emax ([7]; A549, read-out: Emax, control): 449 ± 25% | Emax ([7]; A549, read-out: Emax, in presence of [D-Cys(tBu)^5]NPS 10 μM): 433 ± 37%

Source: article PMC2630366 (The Journal of pharmacology and experimental therapeutics, 2008)
